# From patent US7071188B2 (priority 2001, dated 2006)
# How the values were obtained:
# [1] = system: natural disease pressure on corn variety N58-D1; test: Seed treatment test for field corn and sweet corn, no inoculation, natural disease pressure (Example 2); assay type: in vivo; settings: rates gai/100 kg: Apron XL 3LS 1, Maxim XL 3.5, CGA-301940 2.5, CAPTAN 55 + Allegiance-FL 2
# From the text: (§1) Seed Treatment Test for Field Corn and Sweet Corn
# Fusarium (FFUSARGRAMI) = test: Seed treatment test for field corn and sweet corn, in-furrow Fusarium inoculation (Example 1); assay type: in vivo, Fusarium on corn variety H-8874RR; settings: rates gai/100 kg: Apron XL 3LS 1, Maxim XL 3.5, CGA-301940 2.5, CAPTAN 55 + Allegiance-FL 2
# From the text: as §1
smiles,measurement,setting,value
"CO/C=C(/C(=O)OC)c1ccccc1Oc1cc(Oc2ccccc2C#N)ncn1 [CGA-301940, Azoxystrobin]",Stand Count percent increase (33 DAP),"[1]; 33 DAP, vs Check (non-inoculated)",4.5%
same,Stand Count (No Plants/Plot) 33 DAP,[1]; 33 DAP,46.5c No Plants/Plot
same,Stand Count percent increase (49 DAP),"[1]; 49 DAP, vs Check (non-inoculated)",6.0%
same,Stand Count (No Plants/Plot) 49 DAP,[1]; 49 DAP,52.8c No Plants/Plot
same,Stand Count percent increase (27 DAP),"Fusarium (FFUSARGRAMI); 27 DAP, vs Check (inoculated)",−10.3%
same,Stand Count (No Plants/Plot) 27 DAP,Fusarium (FFUSARGRAMI); 27 DAP,13.0b No Plants/Plot
same,% Vigor percent increase (47 DAP),"Fusarium (FFUSARGRAMI); 47 DAP, vs Check (inoculated)",6.6%
same,Stand Count percent increase (47 DAP),"Fusarium (FFUSARGRAMI); 47 DAP, vs Check (inoculated)",9.8%
same,% Vigor 47 DAP,Fusarium (FFUSARGRAMI); 47 DAP,80.0a %
same,Stand Count (No Plants/Plot) 47 DAP,Fusarium (FFUSARGRAMI); 47 DAP,42.3d No Plants/Plot
